According to PMC10743895, “Synthesis of 1,3,4-Thiadiazole Derivatives and Their Anticancer Evaluation” (International Journal of Molecular Sciences, 2023):
Like-named read-outs stand apart in the source and are kept apart here.

Tests used:
MCF-7 cells [1] = assay: Apoptosis assay (Annexin V-FITC/PI flow cytometry), MCF-7; assay type: cell-based, human
Protocol: (§1) Two reference concentrations, 5 μM and 50 μM, and two distinct treatment durations, 24 and 48 h, were employed to assess the influence of the test compounds on apoptosis in both normal and tumor cells. […] HUVEC cells were exposed to both drugs.
(§2) The apoptosis assay was performed according to the manufacturer’s instructions using the Annexin V-FITC kit (BD Biosciences, San Jose, CA, USA). Cells untreated and treated with the experimental compound were suspended in a cold binding buffer. The percentages of apoptotic cells were determined by double staining with Annexin V-FITC/PI. In each tube was added 400 μL of Annexin V binding buffer and the 5000 cells/sample for 15 min in the dark at room temperature. The cells were analyzed using a FACSCantoII flow-cytometer (Becton Dickinson—BD, La Jolla, CA, USA). The analysis was performed using DIVA 6.2 software to discriminate viable cells (FITC-PI-) from necrotic cells (FITC + PI+), and early apoptosis (FITC + PI) from late apoptosis.

LoVo cells [2] = assay: Apoptosis assay (Annexin V-FITC/PI flow cytometry), LoVo; assay type: cell-based, human
Protocol: as §1, §2

MCF-7 cells [3] = assay: MTS cell viability assay, MCF-7 cells; assay type: cell-based, human; conditions: for IC50: Homo sapiens
Protocol: (§3) To determine the optimal working concentration, dose-effect curves were made for each compound in the range of concentrations between 6.25 and 400 μM.
(§4) LoVo (human colorectal adenocarcinoma) human cancer cell line and HUVEC normal cells were purchased from American Type Culture Collection (ATCC). The MCF-7 human breast adenocarcinoma cell line was provided from European Collection of Authenticated Cell Cultures (ECACC). HUVEC normal cells, isolated from the vascular endothelium of an umbilical cord, were used as a reference. Adherent cells were maintained in culture in Dulbecco’s modified Eagle medium/nutrient mixture F-12 (DMEM:F12) with 2 mM of L-glutamine, 10% fetal bovine serum, 100 units/mL of penicillin and 100 μg/mL of streptomycin, and incubated at 37 °C in a 5% CO2-humidified atmosphere. After 24 h, adherent cells were treated with different concentrations of the compounds for different periods of time. Cis-Pt and DOX, conventional oncology drugs used in cancer treatments, can be used as a positive control of the experiments. […] Then, cells were detached with a nonenzymatic solution of phosphate-buffered saline (PBS)/1 mM EDTA and washed twice in PBS.
(§5) The study utilized a colorimetric assay based on MTS (chemically known as 3-(4,5-dimethylthiazol-2-yl)-5-(3-carboxymethoxyphenyl)-2-(4-sulfophenyl)-2H-tetrazolium) and called CellTiter 96 Aqueous One Solution Cell proliferation Assay (Promega, Madison, WI, USA) in order to measure cell viability. The assay was performed in triplicate in 96-well microtiter plates with a flat bottom (Falcon). A number of 1 × 10^4 cells/well were cultured in 100 μL for 24 h, culture supernatants were discarded, and then cells were treated for 24 and 48 h with increasing concentrations of the tested compound. After the end of the incubation time, 20 μL of the reagent containing MTS and PES (phenazine ethosulfate) was added in each well. Plates were incubated for 4 h at 37 °C, with mild agitation every 15 min. The reduction in the tetrazolium compound to formazan was spectrophotometrically measured at λ = 492 nm using a Dynex plate reader (DYNEX Technologies MRS, Chantilly, VA, USA). The percentage of viability compared to untreated cells (considered 100% viable) was calculated with the formula:(1) Cell viability (%)=Absorbance treated cells−Absorbance culture medium/Absorbance untreated cells−Absorbance culture medium×100
(§6) The cell viability compared was calculated and data were expressed as a mean ± standard deviation (SD) of the experiments and obtained in triplicate (n = 3).

HUVEC cells = assay: Apoptosis assay (Annexin V-FITC/PI flow cytometry), HUVEC; assay type: cell-based, human
Protocol: as §1, §2

LoVo cells [4] = assay: MTS cell viability assay, LoVo cells; assay type: cell-based, human
Protocol: as §3, §4, §5, §6

Daphnia magna = Daphnia magna toxicity assay; assay type: in vivo; conditions: for Maximum Average L% (lethality): up to 200 µM
Protocol: (§7) The Daphnia magna bioassay results are presented in Table 3 as the maximum average percentage of lethality (L%) registered for each compound and the median lethal concentration (LC50) if the values permitted its calculation.
(§8) Daphnia magna Straus is parthenogenetically maintained at ‘Carol Davila’ University’s Department of Pharmaceutical Botany and Cell Biology. The culture was consistently maintained at a temperature of 25 °C, with a 16-h light and 8-h dark photoperiod. To ensure consistency, young daphnids were carefully chosen based on their size and kept in an artificial medium for 24 h prior to the assessment. The bioassay involved 10 daphnids per replicate, using tissue culture plates with 12 wells from Greiner Bio-One. The experimental procedure followed the protocol described in previous studies.
(§9) Each determination was carried out in duplicate.

HUVEC normal cells = assay: MTS cell viability assay, HUVEC normal cells; assay type: cell-based, human
Protocol: as §3, §4, §5, §6

[5] = Daphnia magna toxicity assay; assay type: in vivo; conditions: Daphnia magna, in vivo; 48 h
Protocol: as §7, §8, §9

[6] = MCF7, read-out: IC50 (48 h) MCF-7, 48 h exposure
[7] = MCF7, 24 h exposure, read-out: IC50 (24 h) MCF-7
[8] = Homo sapiens, LoVo, read-out: IC50 (48 h) LoVo, 48 h exposure
[9] = Homo sapiens, LoVo, 24 h exposure, read-out: IC50 (24 h) LoVo
[10] = Homo sapiens, HUVEC, read-out: IC50 (48 h) HUVEC, 48 h exposure
[11] = Homo sapiens, HUVEC, 24 h exposure, read-out: IC50 (24 h) HUVEC

Structure (SMILES) | Total Apoptosis (%) 24 h MCF-7 (MCF-7 cells [1]; 5 μM) | Total Apoptosis (%) 48 h MCF-7 (MCF-7 cells [1]; 5 μM) | Total Apoptosis (%) 24 h MCF-7 (MCF-7 cells [1]; 50 μM) | Total Apoptosis (%) 48 h MCF-7 (MCF-7 cells [1]; 50 μM) | Total Apoptosis (%) 24 h LoVo (LoVo cells [2]; 5 μM) | Total Apoptosis (%) 48 h LoVo (LoVo cells [2]; 5 μM) | Total Apoptosis (%) 24 h LoVo (LoVo cells [2]; 50 μM) | Total Apoptosis (%) 48 h LoVo (LoVo cells [2]; 50 μM) | IC50 (MCF-7 cells [3]; [6]) | IC50 (MCF-7 cells [3]; [7]) | Total Apoptosis (%) 24 h HUVEC (HUVEC cells; 5 μM) | Total Apoptosis (%) 48 h HUVEC (HUVEC cells; 5 μM) | Total Apoptosis (%) 24 h HUVEC (HUVEC cells; 50 μM) | Total Apoptosis (%) 48 h HUVEC (HUVEC cells; 50 μM) | IC50 (LoVo cells [4]; [8]) | IC50 (LoVo cells [4]; [9]) | Maximum Average L% (lethality) (Daphnia magna; 24 h) | Maximum Average L% (lethality) (Daphnia magna; 48 h) | IC50 (HUVEC normal cells; [10]) | IC50 (HUVEC normal cells; [11]) | further results
Nc1nnc(-c2ccc(O)c(O)c2)s1 [2c, 5-(3,4-Dihydroxyphenyl)-1,3,4-thiadiazol-2-amine] | 11.7% | 26.6% | 7.6% | 15.1% | 7.5% | 13.0% | 6.8% | 13.8% | 398 µM | > 400 µM | 16.6% | 15.6% | 12.1% | 12.1% | 117 µM | 163 µM | 0% | 25% | 155 µM | > 400 µM | viability of MCF-7 cells (MCF-7 cells [3]; 48-h period): less than 50%
Cc1ccc(-c2nnc(N)s2)cc1 [2b, 5-(4-Methylphenyl)-1,3,4-thiadiazol-2-amine] | 8.0% | 16.7% | 8.4% | 25.4% | 6.9% | 14.0% | 6.3% | 12.3% | > 400 µM | > 400 µM | 16.7% | 15.7% | 13.6% | 16.6% | 124 µM | 134 µM | 10% | 55% | 70.9 µM | > 400 µM | LC50 at 48 h [5]: 144 µM
Nc1nnc(-c2ccccc2CSc2ccccc2)s1 [2f, 5-[2-(Phenylthiomethyl)phenyl]-1,3,4-thiadiazol-2-amine] | 22.0% | 44.0% | 12.6% | 45.0% | 14.9% | 27.0% | 8.2% | 17.4% | > 400 µM | > 400 µM | 19.9% | 15.9% | 18.6% | 14.6% | 80.7 µM | > 400 µM | 5% | 10% | > 400 µM | > 400 µM | –
COc1cccc2c1C(=O)c1c(O)c3c(c(O)c1C2=O)C[C@@](O)(C(=O)CO)C[C@@H]3O[C@H]1C[C@H](N)[C@H](O)[C@H](C)O1 [DOX, Doxorubicin, reference compound] | – | 33.6% | 19.0% | 49.0% | – | – | – | – | 87.4 µM | 129 µM | 15.2% | 9.5% | 18.6% | – | – | – | – | – | 1.35 µM | 1.03 µM | –
COc1cc(-c2nnc(N)s2)cc(OC)c1OC [2e, 5-(3,4,5-Trimethoxyphenyl)-1,3,4-thiadiazol-2-amine] | 9.1% | 24.6% | 14.9% | 34.2% | 4.9% | 14.3% | 16.4% | 19.9% | > 400 µM | > 400 µM | 26.3% | 13.1% | 24.3% | 15.5% | 79.2 µM | 108 µM | 0% | 5% | 300 µM | > 400 µM | –
Nc1nnc(-c2ccccc2CS(=O)(=O)c2ccccc2)s1 [2g, 5-[2-(Benzenesulfonylmethyl)phenyl]-1,3,4-thiadiazol-2-amine] | 18.7% | 42.2% | 19.7% | 44.5% | 13.6% | 23.6% | 19.6% | 24.8% | 23.3 µM | 43.3 µM | 19.0% | 14.7% | 19.3% | 14.1% | 2.44 µM | 18.1 µM | 0% | 20% | 44.6 µM | > 400 µM | lethality percentages in the Daphnia test (Daphnia magna; even at the highest concentration of 200 µM): below 20%
N.N.[Cl][Pt][Cl] [Cis-Pt, Cisplatin, reference compound] | – | – | – | – | 15.7% | 31.6% | 24.5% | 38.7% | – | – | 15.7% | 14.8% | 21.7% | 17.4% | – | – | – | – | – | – | IC50 (LoVo cells [4]; 24 h exposure, read-out: IC50 (24 h) LoVo): 12.8 µM; IC50 (LoVo cells [4]; read-out: IC50 (48 h) LoVo, 48 h exposure): 80.1 µM; IC50 (HUVEC normal cells; 24 h exposure, read-out: IC50 (24 h) HUVEC): 11.1 µM; IC50 (HUVEC normal cells; read-out: IC50 (48 h) HUVEC, 48 h exposure): 8.23 µM
Nc1nnc(-c2ccccc2)s1 [2a, 5-Phenyl-1,3,4-thiadiazol-2-amine] | 11.8% | 24.4% | 9.8% | 24.7% | 9.0% | 17.6% | 8.9% | 13.7% | > 400 µM | > 400 µM | 12.8% | 14.7% | 15.0% | 18.4% | 62.2 µM | 204 µM | 0% | 40% | 83.8 µM | > 400 µM | –
